Data published in patent publication US20240117303A1, “METHODS AND COMPOSITIONS FOR GENERATING HUMAN MIDBRAIN DOPAMINERGIC NEURONS FROM NEURAL PROGENITOR CELLS” (Trailhead Biosystems Inc., priority 2022, published 2024).
Where “and” joins values, the source holds several entries; their conditions need not be identical. Equal values may be shown once. Entries after “also recorded” stand apart in the source; their conditions may differ.

What was measured:
stage 3 immature neurons = experiment: HD-DoE 8-factor experiment for stage 4 recipe (FIG. 27, 28, 31); type: cell-based, human; settings: for impact on expression of NR4A2: 8-factor model / dynamic profile; for expression level of PITX3 in absence of the factor / expression level of NR4A2 in absence of the factor: stage 4 recipe, other factors present; for expression level of PITX3 in absence of the factor: 40 with all factors; for expression level of NR4A2 in absence of the factor: 400 with all factors
Experimental: To further differentiate the cells to a mature neuronal identity, additional HD-DoE experiments were performed on the cells that were cultured in stage 1, stage 2 and stage 3 differentiation media. After 4 days, gene expression of cells in different combinatorial conditions were investigated. At this time, we focused on maximal expression of more mature dopaminergic genes such as NR4A2, PITX3 and TH (Tiklová et al. (2020) Nat Commun. 11:2434; Fiorenzano et al. (2021) Nat Commun., 12:7302). In one model, cells were treated with a combinatorial matrix with eight inputs including CHIR99021, BDNF, GDNF, Rosiglitazone, GW7647, DBZ and heparin.
(§1) To assess the impact of elimination of each validated factor identified in Example 5 for the stage 3 and stage 4 recipes, we used dynamic profile analysis and compared the expression level of genes of interest in absence of each finalized factor while others are present.
In the stage 4 recipe, each of six finalized factors were excluded while other factors were present and the expression levels of NR4A2 and PITX3 were assessed compared to the presence of all factors.

[1] = tested on: stage 1 neural stem cells; experiment: HD-DoE 12-factor experiment for stage 2 recipe (second model, FIG. 8-10, 13); type: cell-based, human; settings: for impact on GBX2 / impact on expression of FOXA2 / impact on expression of LMX1A: dynamic profile, 12 effectors; for level of FOXA2 in absence of the factor / level of LMX1A in absence of the factor: stage 2 recipe, second experiment model; for level of LMX1A in absence of the factor: 4000 with all factors
Experimental: To test additional factors like FGF8 that is routinely used in midbrain differentiation protocols, we ran another 12-factor experiment consisting of LDN193189, BMP7, A 83-01, Activin A, Takinib, PD0325901, MK2206, FGF8b, AZD3147, MHY1485, GSI-XX and Yhhu 3792. Similar to the previous experiment, hiPSCs were treated with stage 1 media for 3 days and then treated with 96 conditions of combinations of the factors for an additional 3 days. When this model was optimized for maximum expression of FOXA2, BMP7 with factor contribution of 13.7 and MK2206 with 14.2 had the most impact on its expression followed by AZD 3147 with factor contribution of 10.9.
(§2) To assess the impact of elimination of each validated factor, we used dynamic profile analysis and compared the expression level of genes of interest in absence of each finalized factor while others are present.
(§3) In the stage 2 recipe, each of the six finalized factors were removed while the other five factors were present and the expression levels of FOXA2, LMX1A and GBX2 were assessed, compared to the levels in the presence of all factors. According to the first experiment model, the absence of TTNPB lead to a rise of GBX2 expression, while the value of FOXA2 and LMX1A reduced drastically from 10,000 to 0 and 30,000 to 15,000, respectively. The absence of A 83-01 reduced the expression of FOXA2 from 10,000 to 7000, however, as expected, the value of LMX1A increased from 30,000 to 40,000. […] According to the second experiment model, the absence of BMP7 and MK2206 both reduced the level of FOXA2 while increasing the value of LMX1A, with BMP7 as the main effector that led to 0 expression of FOXA2.

[2] = tested on: stage 1 neural stem cells; experiment: HD-DoE 12-factor experiment for stage 2 recipe (first model, FIG. 5-7, 12); type: cell-based, human; settings: dynamic profile / model, 12 effectors
Description: To further guide the differentiation of midbrain-committed neural stem cells to neural progenitor cells at stage 2, we performed an additional HD-DoE experiment. We thereby obtained additional gene regulatory models that were used for preparation of differentiation protocol. The basis of this was a 12-factor HD-DoE experiment with focus on initiation of differentiation of cells toward midbrain neural progenitor cells for an additional 3 days after termination of stage 1 treatment. Here, we focused on expression of LMX1A and FOXA2 in neural progenitor cells with low to zero expression of GBX2. LMX1A had significant high expression level in the model with value of 47888. Therefore, we used optimization setting for this gene to identify the positive factors. The factors in this experiment included SC79, MK2206, ZM336372, PD0325901, CHIR99021, A 83-01, TTNPB, AGN193109, GW3965, SR9243, Purmorphamine and GSI-XX.
as §2, §3

[3] = tested on: human pluripotent stem cells; experiment: HD-DoE 13-factor experiment for stage 1 recipe, gene expression modeled after 3-day treatment; dynamic profile and factor criticality analysis; type: cell-based
Description: This example utilizes a method of High-Dimensional Design of Experiments (HD-DoE), as previously described in Bukys et al. (2020) Iscience 23:101346. The method employs computerized design geometries to simultaneously test multiple process inputs and offers mathematical modeling of a deep effector/response space. The method allows for finding combinatorial signaling inputs that control a complex process, such as during cell differentiation. It allows testing of multiple plausible critical process parameters, as such parameters impact output responses, such as gene expression. Because gene expression provides hallmark features of the phenotype of, for example, a human cell, the method can be applied to identify, and understand, which signaling pathways control cell fate. In the current example, the HD-DOE method was applied with the intent to find conditions for induction of midbrain neural progenitor-expressed genes, directly from the pluripotent stem cell state.
To develop the recipe for each stage, the impact of agonists and antagonists of multiple signaling pathways (referred to herein as “effectors”) on the expression of two sets of 53 pre-selected genes after a 3-day treatment was tested and modeled. These effectors are small molecules or proteins that are commonly used during stepwise differentiation of stem cells to specific fates. The choice of the effectors to test was based on current literature on neural induction in the midbrain region of the developing brain and differentiation of stem cells to neural progenitors.
To test the effectors, experiments with at least 8 factors were designed that can assess the response of cells to 48 or more different combinations of effectors in a range of concentrations. To analyze the models, we focused on expression of genes expressed in the midbrain region, including OTX2, DMBX1, FOXA2, LMX1A, and on the absence of GBX2, which is a hindbrain marker. The impact of each effector on gene expression level is defined by a parameter called factor contribution that is calculated for each effector during the modeling.
To identify the recipe of stage 1 of differentiation, cells were treated with various effectors for 3 days and the gene expression of cells was modeled. […] This model consisted of 13 factors including LDN193189, PD173074, BLU9931, Purmorphamine, SC79, MK2206, ZM336372, PD0325901, CHIR99021, XAV939, UCLA-gp130, Tofacitinib and GO 6983.
as §2
In the stage 1 recipe, each of the five finalized factors were removed while the other four factors were present and the expression levels of OTX2, DMBX1, FOXA2 and LMX1A was assessed compared to the levels in the presence of all five factors (FIG. 11A-B). […] Expression level of DMBX1 increased in absence of LDN193189, however values of OTX2, FOXA2 and LMX1A decreased.

[4] = tested on: stage 2 neural progenitors; experiment: HD-DoE 12-factor model for stage 3 recipe (FIG. 19-23, 29); type: cell-based, human
Description: To develop the neuronal differentiation recipes, the impact of various agonist and antagonists (effectors) on maturation of MB neural progenitors was investigated using the HD-DoE method described in Example 1. These effectors were chosen based on available literature on developmental biology, differentiation of stem cells as well as mouse and human single cell RNA-seq data from midbrain neurons at the time.
To engineer the recipe of stage 3 of differentiation, cells were first cultured in the stage 1 and stage 2 media as described herein, then they were treated with combinations of 8 or 12 factors for 3 days and the gene expression of cells in each condition was modeled. To guide the cells towards a subtype of midbrain dopaminergic neurons that reside in Substantia Nigra pars compacta (SNc) region of the brain, neural progenitors need to be SOX6^+ (Pereira et al. (2021) Cell Rep. 37:109975 Oosterveen et al. (2021) Stem Cell Reports 16:2718-2735 Poulin et al. (2020) Trends Neurosci. 43:155-169). CORIN, NGN2 and MSX1 are other markers involved in neurogenesis of dopaminergic neurons originating from floorplate region of developing midbrain (Wang et al. (2020) Cells 9:1489; Samata et al. (2016) Nat Commun. 7:13097; Ono et al. (2007) Development 134:3213-3225; Prakash et al. (2006) J. Physiol. 575:403410).
Therefore, we focused on maximizing expression of SOX6, CORIN, NGN2 and MSX1 in modeling experiments. One of the 12-factor models, the results of which are shown in FIG. 19, including LDN193189, AGN193109, BMP7, TTNPB, PD0325901, A8301, MHY1485, CHIR99021, XAV939, SANT-1, Purmorphamine and MK2206, provided a combination set that could maximize expression level of CORIN to more than 2000.
as §1
In the stage 3 recipe, each of the finalized factors were removed in their respective models while other factors were present and the expression level of genes of interest was assessed compared to presence of all factors. When AGN193109 was excluded, level of all CORIN, KCNJ6, MSX1 and SOX6 decreased from 900 to 450, 50 to 35, 140 to 110 and 105 to 60, respectively. […] When PD0325901 was removed, expression levels of CORIN and KCNJ6 increased to 1200 and 70 while levels of MSX1 and SOX6 decreased to 105 and 20. In the absence of CHIR99021, the expression level of CORIN was again increased to 1200 while the level of KCNJ6 and MSX1 dropped to 50 and 115. […] Therefore, it was decided to include this compound in the final recipe. […] Therefore, CHIR99021 was also included in the final recipe.

[5] = model optimized for maximum expression of FOXA2, positive impact

heparin
impact on expression of NR4A2 (stage 3 immature neurons): positive regulatory impact
expression level of PITX3 in absence of the factor (stage 3 immature neurons): 30
expression level of NR4A2 in absence of the factor (stage 3 immature neurons): did not significantly change

CC(C)(Sc1ccc(CCN(CCCCC2CCCCC2)C(=O)NC2CCCCC2)cc1)C(=O)O [GW7647]
impact on expression of NR4A2 (stage 3 immature neurons): positive regulatory impact
expression level of PITX3 in absence of the factor (stage 3 immature neurons): lower expression levels
expression level of NR4A2 in absence of the factor (stage 3 immature neurons): lower expression levels

NCCc1ccc(O)c(O)c1 [Dopamine]
impact on expression of NR4A2 (stage 3 immature neurons): positive regulatory impact
expression level of PITX3 in absence of the factor (stage 3 immature neurons): 20
expression level of NR4A2 in absence of the factor (stage 3 immature neurons): ~0

CN(CCOc1ccc(CC2SC(=O)NC2=O)cc1)c1ccccn1 (centres unmarked) [Rosiglitazone]
factor contribution (stage 3 immature neurons; model maximized for NR4A2, negative impact): 13.6

NC1(c2ccc(-c3nc4ccn5c(=O)[nH]nc5c4cc3-c3ccccc3)cc2)CCC1 [MK2206]
impact on GBX2 [1]: desirable impact
impact on expression of FOXA2 [1]: desirable impact; also recorded: positive impact
impact on expression of LMX1A [1]: decreases
factor contribution [1, 5]: 14.2
factor contribution ([1]; model optimized for maximum expression of LMX1A, positive impact): 12
level of FOXA2 in absence of the factor [1]: reduced
level of LMX1A in absence of the factor [1]: increasing
impact on expression of FOXA2 [2]: positive impact
impact on expression of OTX2 ([3]; dynamic profile, 13 effectors): positive impact
factor contribution ([3]; model optimized for maximum expression of OTX2, positive impact, 3-day treatment): 22.3
expression level of LMX1A in absence of the factor ([3]; stage 1 recipe, other four factors present, 300 with all five factors): stayed the same
expression level of FOXA2 in absence of the factor ([3]; stage 1 recipe, other four factors present, 600 with all five factors): stayed the same
expression level of DMBX1 in absence of the factor ([3]; stage 1 recipe, other four factors present, 3000 with all five factors): 1500
expression level of OTX2 in absence of the factor ([3]; stage 1 recipe, other four factors present, 12000 with all five factors): 9500

C[C@H](NC(=O)Cc1cc(F)cc(F)c1)C(=O)N[C@@H]1C(=O)N(C)c2ccccc2-c2ccccc21 [GSI-XX]
impact on expression of FOXA2 [1]: did not make a meaningful positive change
impact on expression of LMX1A [1]: did not make a meaningful positive change

COc1cccc(Oc2cccc3nc(Nc4ccc(C(C)C)cc4)nc(N)c23)c1 [Yhhu 3792]
impact on GBX2 [1]: positive effect
impact on expression of LMX1A [1]: considerable negative effect
factor contribution ([1]; model optimized for LMX1A, negative impact): 11.7

B1: BMP7: BMP agonist (protein, UniProt P18075 293-431, looked up)
Bone morphogenetic protein 7: STGSKQRSQNRSKTPKNQEALRMANVAENSSSDQRQACKKHELYVSFRDLGWQDWIIAPEGYAAYYCEGECAFPLNSYMNATNHAIVQTLVHFINPETVPKPCCAPTQLNAISVLYFDDSSNVILKKYRNMVVRACGCH
factor contribution ([4]; model maximizing expression of CORIN, positive regulatory impact): high positive factor contributions
factor contribution ([4]; model optimized for maximum expression of KCNJ6, positive regulators): low factor contributions
factor contribution ([4]; model optimized for maximum expression of MSX1, positive impact): 11.1 and 11.06
expression level of KCNJ6 in absence of the factor ([4]; stage 3 recipe, other factors present, 50 with all factors): did not have a significant change
expression level of SOX6 in absence of the factor ([4]; stage 3 recipe, other factors present, 105 with all factors): did not have a significant change
expression level of MSX1 in absence of the factor ([4]; stage 3 recipe, other factors present, 140 with all factors): 100
expression level of CORIN in absence of the factor ([4]; stage 3 recipe, other factors present, 900 with all factors): 500
impact on expression of FOXA2 [1]: significant positive impact
impact on expression of LMX1A [1]: did not reduce
factor contribution [1, 5]: 13.7
level of FOXA2 in absence of the factor [1]: 0
level of LMX1A in absence of the factor [1]: increasing
